≈ marks a conversion by molar mass, not a printed value.
Columns and labels:
[1] = tested on: Providencia SK & F 276; experiment: MIC, standard microtiter assay; assay type: cell-based
[2] = tested on: Staph. aureus SK & F 2597; experiment: MIC, standard microtiter assay; assay type: cell-based; conditions: Staphylococcus aureus
[3] = tested on: E. coli 12140 (SK & F 809); experiment: MIC, standard microtiter assay; assay type: cell-based; conditions: Escherichia coli
[4] = tested on: C. difficile SK & F 3141; experiment: MIC, standard microtiter assay; assay type: cell-based; conditions: Clostridioides difficile
[5] = tested on: Pseudomonas aeruginosa HH63; experiment: MIC, standard microtiter assay; assay type: cell-based
[6] = tested on: B. thetaiotamicron SK & F 3089; experiment: MIC, standard microtiter assay; assay type: cell-based
[7] = tested on: C. perfringens SK & F 2769; experiment: microbe, parasite or virus in culture; assay type: cell-based; conditions: Clostridium perfringens
[8] = tested on: C. difficile SK & F 3096; experiment: MIC, standard microtiter assay; assay type: cell-based; conditions: Clostridioides difficile
[9] = tested on: Fusobacterium nucleatum ATCC 25586; experiment: MIC, standard microtiter assay; assay type: cell-based
[10] = tested on: Proteus mirabilis SK & F 444; experiment: MIC, standard microtiter assay; assay type: cell-based
[11] = tested on: Staph. aureus SK & F 209P-mutant; experiment: microbe, parasite or virus in culture; assay type: cell-based; conditions: Staphylococcus aureus
[12] = tested on: Staph. aureus SK & F 2736; experiment: MIC, standard microtiter assay; assay type: cell-based; conditions: Staphylococcus aureus
[13] = tested on: Staph. aureus SK & F 2589; experiment: MIC, standard microtiter assay; assay type: cell-based; conditions: Staphylococcus aureus
[14] = tested on: Staph. aureus SK & F 2615; experiment: MIC, standard microtiter assay; assay type: cell-based; conditions: Staphylococcus aureus
[15] = tested on: Staph. aureus SK & F 2592; experiment: MIC, standard microtiter assay; assay type: cell-based; conditions: Staphylococcus aureus
[16] = tested on: Staph. aureus SK & F 2613; experiment: MIC, standard microtiter assay; assay type: cell-based; conditions: Staphylococcus aureus
[17] = tested on: Staph. aureus HH127; experiment: MIC, standard microtiter assay; assay type: cell-based
[18] = tested on: Enterobacter cloacae HH31254; experiment: MIC, standard microtiter assay; assay type: cell-based
[19] = tested on: Staph. aureus SK & F 2743; experiment: MIC, standard microtiter assay; assay type: cell-based; conditions: Staphylococcus aureus
[20] = tested on: Staph. aureus SK & F 2666; experiment: MIC, standard microtiter assay; assay type: cell-based; conditions: Staphylococcus aureus
[21] = tested on: Staph. aureus SK & F 2596; experiment: MIC, standard microtiter assay; assay type: cell-based; conditions: Staphylococcus aureus
[22] = tested on: Staph. aureus HH 127; experiment: in vivo activity against intraperitoneal infections in mice; design: species or system mice infected with Staph. aureus; conditions: Staphylococcus aureus, HH127, sc
[23] = tested on: Clostridium difficile SK & F 3062; experiment: MIC, standard microtiter assay; assay type: cell-based; conditions: Clostridioides difficile
[24] = tested on: E. coli SK & F 12140; experiment: MIC, standard microtiter assay; assay type: cell-based; conditions: Escherichia coli
[25] = tested on: Staph. aureus SK & F 2682; experiment: MIC, standard microtiter assay; assay type: cell-based; conditions: Staphylococcus aureus
[26] = tested on: B. loeochis SK & F 3087; experiment: MIC, standard microtiter assay; assay type: cell-based; conditions: Table D, Anaerobes
Text: The AAD 216 aglycone, the AAD 216 pseudo-aglycone, the AAD 216A pseudo-aglycone, the AAD 216B pseudo-aglycone and the AAD 216C pseudo-aglycone were neutralized with sodium bicarbonate prior to testing.

[27] = tested on: B. thetaiotomicron H-145; experiment: MIC, standard microtiter assay; assay type: cell-based
[28] = tested on: Staph. aureus SK & F 2614; experiment: MIC, standard microtiter assay; assay type: cell-based; conditions: Staphylococcus aureus
[29] = tested on: Staph. aureus SK & F 2593; experiment: MIC, standard microtiter assay; assay type: cell-based; conditions: Staphylococcus aureus
[30] = tested on: Listeria monocytogenes SK & F 2255; experiment: MIC, standard microtiter assay; assay type: cell-based
[31] = tested on: Staph. aureus SK & F 2612; experiment: MIC, standard microtiter assay; assay type: cell-based; conditions: Staphylococcus aureus
[32] = tested on: Staph. aureus SK & F 2591; experiment: MIC, standard microtiter assay; assay type: cell-based; conditions: Staphylococcus aureus
[33] = tested on: Staph. aureus SK & F 2595; experiment: MIC, standard microtiter assay; assay type: cell-based; conditions: Staphylococcus aureus
[34] = tested on: Staph. aureus SK & F 2777; experiment: MIC, standard microtiter assay; assay type: cell-based; conditions: Staphylococcus aureus
[35] = tested on: Staph. aureus SK & F 2620; experiment: MIC, standard microtiter assay; assay type: cell-based; conditions: Staphylococcus aureus
[36] = tested on: inoculum (ileal or cecal cannula filtrate); experiment: swine in vitro model, growth promotant activity; conditions: experiment I, 5 hours, 37° C.; for GLU (% Control): glucose; for LAC (% Control): lactic acid; for LYS (% Control): lysine; for VFA (% Control): total volatile fatty acids
[37] = tested on: Staph. aureus SK & F 675; experiment: MIC, standard microtiter assay; assay type: cell-based; conditions: Staphylococcus aureus
[38] = tested on: Staph. aureus SK & F 2776; experiment: MIC, standard microtiter assay; assay type: cell-based; conditions: Staphylococcus aureus
[39] = tested on: B. fragilis H145; experiment: MIC, standard microtiter assay; assay type: cell-based; conditions: Bacteroides fragilis
[40] = tested on: Salmonella gallinarum SK & F BC595; experiment: microbe, parasite or virus in culture; assay type: cell-based; conditions: Salmonella enterica

CN[C@H](CC(C)C)C(=O)N[C@H]1C(=O)N[C@@H](CC(N)=O)C(=O)N[C@H]2C(=O)N[C@H]3C(=O)N[C@H](C(=O)N[C@H](C(=O)O)c4cc(O)cc(O)c4-c4cc3ccc4O)[C@H](O)c3ccc(c(Cl)c3)Oc3cc2cc(c3O[C@@H]2O[C@H](CO)[C@@H](O)[C@H](O)[C@H]2O[C@H]2C[C@](C)(N)[C@H](O)[C@H](C)O2)Oc2ccc(cc2Cl)[C@H]1O [Vancomycin, vancomycin]
MIC [1]: > 100 µg/mL
MIC [2]: 3.1 µg/mL (≈ 2.14 µM)
MIC [3]: 100 µg/mL (≈ 69 µM)
MIC [4]: 1 µg/mL (≈ 0.69 µM)
MIC [5]: > 100 µg/mL
MIC [6]: 32 µg/mL (≈ 22.1 µM)
MIC [7]: 0.5 µg/mL (≈ 0.345 µM)
MIC [8]: 2 µg/mL (≈ 1.38 µM)
MIC ([9]; Fusobacterium nucleatum, ATCC25586): 32 µg/mL (≈ 22.1 µM)
MIC ([9]; Table F, Fusobacterium nucleatum ATCC 25586): 32 µg/mL (≈ 22.1 µM)
MIC [10]: 100 µg/mL (≈ 69 µM)
MIC [11]: 100 µg/mL (≈ 69 µM)
MIC [12]: 1.6 µg/mL (≈ 1.1 µM)
MIC [13]: 1.6 µg/mL (≈ 1.1 µM)
MIC [14]: 3.1 µg/mL (≈ 2.14 µM)
MIC [15]: 3.1 µg/mL (≈ 2.14 µM)
MIC [16]: 1.6 µg/mL (≈ 1.1 µM)
MIC ([17]; Staphylococcus aureus, HH127): 1.6 µg/mL (≈ 1.1 µM)
MIC ([17]; Table A, Staph. aureus HH127): 1.6 µg/mL (≈ 1.1 µM)
MIC ([17]; Table E, Staph. aureus HH127): 1.6 µg/mL (≈ 1.1 µM)
MIC [18]: > 100 µg/mL
MIC [19]: 1.6 µg/mL (≈ 1.1 µM)
MIC [20]: 1.6 µg/mL (≈ 1.1 µM)
MIC [21]: 3.1 µg/mL (≈ 2.14 µM)
ED50 ([22]; i.p. infection 46.8 LD50's Staph. aureus HH 127, s.c. 1 and 5 hours post infection): 1.56 mg/kg
ED50 ([22]; second test, similar protocol, s.c.): 1.92 mg/kg
MIC ([23]; Table D, Anaerobes, Clostridium difficile SK & F 3062): 2 µg/mL (≈ 1.38 µM)
MIC ([23]; Table F, C. difficile SK & F 3062): 0.5 µg/mL (≈ 0.345 µM)
MIC [24]: > 100 µg/mL
MIC [25]: 1.6 µg/mL (≈ 1.1 µM)
MIC [26]: 32 µg/mL (≈ 22.1 µM)
MIC [27]: > 32 µg/mL
MIC [28]: 1.6 µg/mL (≈ 1.1 µM)
MIC [29]: 1.6 µg/mL (≈ 1.1 µM)
MIC ([30]; Table A): 1.6 µg/mL (≈ 1.1 µM)
MIC ([30]; Table E): 0.8 µg/mL (≈ 0.552 µM)
MIC [31]: 1.6 µg/mL (≈ 1.1 µM)
MIC [32]: 1.6 µg/mL (≈ 1.1 µM)
MIC [33]: 1.6 µg/mL (≈ 1.1 µM)
MIC [34]: 0.8 µg/mL (≈ 0.552 µM)
MIC [35]: 3.1 µg/mL (≈ 2.14 µM)
GLU (% Control) ([36]; 1.67 ppm): 100 % Control
LAC (% Control) ([36]; 1.67 ppm): 99 % Control
LYS (% Control) ([36]; 1.67 ppm): 83 % Control
VFA (% Control) ([36]; 1.67 ppm): 92 % Control
GLU (% Control) ([36]; 16.67 ppm): 189 % Control
LAC (% Control) ([36]; 16.67 ppm): 59 % Control
LYS (% Control) ([36]; 16.67 ppm): 42 % Control
VFA (% Control) ([36]; 16.67 ppm): 280 % Control
GLU (% Control) ([36]; 166.67 ppm): 190 % Control
LAC (% Control) ([36]; 166.67 ppm): 64 % Control
LYS (% Control) ([36]; 166.67 ppm): 48 % Control
VFA (% Control) ([36]; 166.67 ppm): 250 % Control
MIC ([37]; Table C, Methicillin Resistant): 1.6 µg/mL (≈ 1.1 µM)
MIC ([37]; Table E): 3.1 µg/mL (≈ 2.14 µM)
MIC [38]: 1.6 µg/mL (≈ 1.1 µM)
MIC [39]: 32 µg/mL (≈ 22.1 µM)
MIC [40]: 25 µg/mL (≈ 17.3 µM)
